Reference: US7781445B2, “Synthesis of indenoisoquinoliniums and methods of use” (Purdue Research Foundation, priority 2005, dated 2010)
Like-named read-outs stand apart in the source and are kept apart here.

Experiments:
[1] = test system: all human cancer cell lines successfully tested (approximately 55); assay: COMPARE screening, mean graph midpoint (MGM); type: cell-based; conditions: average GI50 over all cell lines tested, values outside 10^-8 to 10^-4 molar taken as the limits, read-out: MGM (mean graph midpoint for growth inhibition); for MGM (mean GI50 across cell lines): Homo sapiens
Excerpt: (§1) This in vitro prescreening system is based on the measurement of anticancer cytotoxicity against human cancer cell line panels consisting of approximately 60 cell lines of major human cancers (including leukemia, and slower growing tumor cells such as lung, colon, breast, skin, kidney, etc.) and is referred hereinafter as “COMPARE” screening.
(§2) COMPARE screening. The compounds described herein were examined for antiproliferative activity against the human cancer cell lines in the National Cancer Institute screen (COMPARE screening), in which the activity of each compound was evaluated with approximately 55 different cancer cell lines of diverse tumor origins. […] Therefore, the MGM value represents an overall assessment of toxicity of the compound across numerous cell lines.

MDA-MB-435 = assay: COMPARE screening (NCI), GI50 in MDA-MB-435
Excerpt: as §1, §2

HCT-116 = assay: COMPARE screening (NCI), GI50 in HCT-116
Excerpt: as §1, §2

SF-539 = assay: COMPARE screening (NCI), GI50 in SF-539; conditions: Homo sapiens, read-out: Cytotoxicity GI50, CNS SF-539
Excerpt: as §1, §2

DU-145 = assay: COMPARE screening (NCI), GI50 in DU-145
Excerpt: as §1, §2

SN12C = assay: COMPARE screening (NCI), GI50 in SN12C
Excerpt: as §1, §2

UACC-62 = assay: COMPARE screening (NCI), GI50 in UACC-62
Excerpt: as §1, §2

HOP-62 = assay: COMPARE screening (NCI), GI50 in HOP-62
Excerpt: as §1, §2

topoisomerase I = molecular target: T1, topoisomerase I (Homo sapiens, UniProt P11387); assay: Topoisomerase I-mediated DNA cleavage, 3'-end-labeled 161 bp pBluescript SK(-) fragment; type: biochemical; conditions: for top1-mediated DNA cleavage band at site 37 / top1-mediated DNA cleavage band at site 44: FIG. 1; for top1-mediated DNA cleavage band at site 37: cleavage site 37; for top1-mediated DNA cleavage band at site 44: cleavage site 44; for Top 1 Cleavage: tested at concentrations ranging up to 10 μM, semi-quantitative relative to compound A
T1 sequence (P11387 1-765): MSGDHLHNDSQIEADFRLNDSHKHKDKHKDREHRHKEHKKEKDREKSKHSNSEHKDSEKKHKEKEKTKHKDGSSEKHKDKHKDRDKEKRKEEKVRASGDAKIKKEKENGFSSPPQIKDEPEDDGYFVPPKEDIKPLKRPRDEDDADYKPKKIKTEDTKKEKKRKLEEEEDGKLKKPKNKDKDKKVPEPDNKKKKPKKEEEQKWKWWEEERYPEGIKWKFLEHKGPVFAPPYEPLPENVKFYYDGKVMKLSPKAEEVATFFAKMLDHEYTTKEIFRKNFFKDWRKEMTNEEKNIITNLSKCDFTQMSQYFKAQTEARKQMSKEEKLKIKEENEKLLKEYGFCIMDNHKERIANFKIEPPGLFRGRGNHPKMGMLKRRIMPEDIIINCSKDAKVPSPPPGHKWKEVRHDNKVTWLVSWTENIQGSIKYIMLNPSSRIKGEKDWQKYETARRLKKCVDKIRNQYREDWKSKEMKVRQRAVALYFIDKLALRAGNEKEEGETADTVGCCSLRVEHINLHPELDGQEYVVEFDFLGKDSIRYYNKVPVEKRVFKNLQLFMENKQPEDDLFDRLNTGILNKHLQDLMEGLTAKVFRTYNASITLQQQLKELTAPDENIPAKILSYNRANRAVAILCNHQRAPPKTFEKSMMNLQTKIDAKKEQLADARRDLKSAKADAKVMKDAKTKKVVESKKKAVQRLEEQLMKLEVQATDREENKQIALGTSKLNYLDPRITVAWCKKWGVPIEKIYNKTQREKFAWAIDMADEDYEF
Description: The assays were carried out at room temperature for 30 min and stopped by adding 0.5% SDS. […] Topoisomerase I was present in all reaction mixtures except for the one corresponding to the first lane.
Induction of DNA cleavage.
Labeling reactions were followed by phenol-chloroform extraction and ethanol precipitation. […] Reactions were terminated by adding 0.5% SDS.
DNA Cleavage Semiquantitative Analysis. […] The rubberband baseline correction was applied with band detection sensitivity set at 90.

OVCAR-3 = assay: COMPARE screening (NCI), GI50 in OVCAR-3
Excerpt: as §1, §2

[2] = Homo sapiens, HCT-116, read-out: Cytotoxicity GI50, colon HCT-116, colon, HCT-116, concentration corresponding to 50% growth inhibition
[3] = Homo sapiens, DU-145, read-out: Cytotoxicity GI50, prostate DU-145, prostate, DU-145, concentration corresponding to 50% growth inhibition
[4] = Homo sapiens, SN12C, read-out: Cytotoxicity GI50, renal SN12C, renal, SN12C, concentration corresponding to 50% growth inhibition
[5] = Homo sapiens, MDA-MB-435, read-out: Cytotoxicity GI50, breast MDA-MB-435, breast, MDA-MB-435, concentration corresponding to 50% growth inhibition
[6] = Homo sapiens, UACC-62, read-out: Cytotoxicity GI50, melanoma UACC-62, melanoma, UACC-62, concentration corresponding to 50% growth inhibition
[7] = Homo sapiens, HOP-62, read-out: Cytotoxicity GI50, lung HOP-62, lung, HOP-62, concentration corresponding to 50% growth inhibition
[8] = Homo sapiens, OVCAR-3, read-out: Cytotoxicity GI50, ovarian OVCAR-3, ovarian, OVCAR-3, concentration corresponding to 50% growth inhibition

COc1cc2c3c(n(C)c(=O)c2cc1OC)-c1cc2c(cc1C3=O)OCO2 [A, reference compound]
IC50 [1]: 20 µM | GI50 (MDA-MB-435): 96 µM

CC[C@@]1(O)C(=O)OCc2c1cc1n(c2=O)Cc2cc3ccccc3nc2-1 [B, camptothecin, reference compound]
GI50 (HCT-116; [2]): 0.03 µM | GI50 (SF-539): 0.01 µM | GI50 (DU-145; [3]): 0.01 µM | GI50 (SN12C; [4]): 0.02 µM | GI50 (MDA-MB-435; [5]): 0.04 µM | GI50 (UACC-62; [6]): 0.01 µM | GI50 (HOP-62; [7]): 0.01 µM

COc1cc2c3c(n(CCCNCCO)c(=O)c2cc1OC)-c1cc2c(cc1C3=O)OCO2 [C, reference compound]
top1-mediated DNA cleavage band at site 37 (topoisomerase I): not seen | top1-mediated DNA cleavage band at site 44 (topoisomerase I): observed

COc1cc2c[n+](CCCN)c3c(c2cc1OC)C(=O)c1cc2c(cc1-3)OCO2 [Compound 7ab, 6-(3-Amino-1-propyl)-2,3-dimethoxy-8,9-(methylenedioxy)-1′-oxo-indeno[1,2-c]isoquinolinium Chloride]
IC50 [1]: 0.167 µM

COc1cc2c(cc1OC)-c1ncc3cc(OC)c(OC)cc3c1C2.Cl [Compound 9aa, 2,3,8,9-Tetramethoxy-11H-indeno[1,2-c]isoquinoline Hydrochloride]
MGM (mean GI50 across cell lines) [1]: 44.7 µM | top1-mediated DNA cleavage band at site 37 (topoisomerase I): not seen | top1-mediated DNA cleavage band at site 44 (topoisomerase I): observed | Top 1 Cleavage (topoisomerase I; Table 1): ++ (++, similar activity as compound A) | GI50 (HCT-116; [2]): > 50 µM | GI50 (OVCAR-3; [8]): > 50 µM | GI50 (SF-539): > 50 µM | GI50 (DU-145; [3]): > 50 µM | GI50 (SN12C; [4]): > 50 µM | GI50 (MDA-MB-435; [5]): > 50 µM | GI50 (UACC-62; [6]): > 50 µM

COC1=C(OC)Cc2c3c(ncc2=C1)=c1cc2c(cc1=C3)OCO2.Cl [Compound 9ab, 2,3-Dimethoxy-8,9-methylenedioxy-1H-indeno[1,2-c]isoquinoline Hydrochloride]
MGM (mean GI50 across cell lines) [1]: 0.0505 µM | top1-mediated DNA cleavage band at site 37 (topoisomerase I): not seen | top1-mediated DNA cleavage band at site 44 (topoisomerase I): observed | Top 1 Cleavage (topoisomerase I; Table 1): +++ (+++ and ++++, greater activity than compound A) | GI50 (HCT-116; [2]): > 100 µM | GI50 (SF-539): < 0.01 µM | GI50 (DU-145; [3]): 0.0281 µM | GI50 (SN12C; [4]): > 100 µM | GI50 (MDA-MB-435; [5]): < 0.01 µM | GI50 (UACC-62; [6]): < 0.01 µM | GI50 (HOP-62; [7]): 0.0721 µM

COc1cc2c(cc1OC)-c1ncc3cc4c(cc3c1C2)OCO4.Cl [Compound 9ba, 8,9-Dimethoxy-2,3-methylenedioxy-11H-indeno [1,2-c]isoquinoline hydrochloride]
MGM (mean GI50 across cell lines) [1]: 33.9 µM | top1-mediated DNA cleavage band at site 37 (topoisomerase I): not seen | top1-mediated DNA cleavage band at site 44 (topoisomerase I): observed | Top 1 Cleavage (topoisomerase I; Table 1): +++ (+++ and ++++, greater activity than compound A) | GI50 (HCT-116; [2]): 11.1 µM | GI50 (OVCAR-3; [8]): 61.2 µM | GI50 (SF-539): 23.4 µM | GI50 (DU-145; [3]): 25.3 µM | GI50 (SN12C; [4]): > 100 µM | GI50 (MDA-MB-435; [5]): 63.4 µM | GI50 (UACC-62; [6]): > 100 µM

COc1cc2c(c(OC)c1OC)-c1ncc3cc4c(cc3c1C2)OCO4.Cl [Compound 9bc, 7,8,9-Trimethoxy-2,3-methylenedioxy-11H-indeno[1,2-c]isoquinoline Hydrochloride]
MGM (mean GI50 across cell lines) [1]: 20.9 µM | Top 1 Cleavage (topoisomerase I; Table 1): 0 (0, no activity) | GI50 (HCT-116; [2]): 18.8 µM | GI50 (OVCAR-3; [8]): 15.5 µM | GI50 (DU-145; [3]): 23.2 µM | GI50 (SN12C; [4]): 13.4 µM | GI50 (MDA-MB-435; [5]): 13.2 µM | GI50 (UACC-62; [6]): 19.3 µM | GI50 (HOP-62; [7]): 21.7 µM

COc1cc2c(c(OC)c1OC)-c1ncc3cc(OC)c(OC)c(OC)c3c1C2.Cl [Compound 9cc, 1,2,3,7,8,9-Hexamethoxy-11H-indeno[1,2-c]isoquinoline Hydrochloride]
MGM (mean GI50 across cell lines) [1]: 24 µM | Top 1 Cleavage (topoisomerase I; Table 2, Hydrochloride): 0 (0, no activity) | GI50 (HCT-116; [2]): 33.5 µM | GI50 (OVCAR-3; [8]): 19.1 µM | GI50 (DU-145; [3]): 26.6 µM | GI50 (SN12C; [4]): 17.6 µM | GI50 (MDA-MB-435; [5]): 20.8 µM | GI50 (UACC-62; [6]): 17.4 µM | GI50 (HOP-62; [7]): 35.4 µM

COc1ccc(OC)c2c3c(ncc12)-c1cc2c(cc1C3)OCO2.Cl [Compound 9db, 1,4-Dimethoxy-8,9-methylenedioxy-11H-indeno[1,2-c]isoquinoline Hydrochloride]
MGM (mean GI50 across cell lines) [1]: 24.5 µM | Top 1 Cleavage (topoisomerase I; Table 2): ++ (++, similar activity as compound A) | GI50 (HCT-116; [2]): 0.249 µM | GI50 (OVCAR-3; [8]): 26.9 µM | GI50 (DU-145; [3]): 48.4 µM | GI50 (SN12C; [4]): > 100 µM | GI50 (MDA-MB-435; [5]): > 100 µM | GI50 (UACC-62; [6]): > 100 µM | GI50 (HOP-62; [7]): < 0.01 µM

COc1ccc2c(c1OC)-c1ncc3cc(OC)c(OC)c(OC)c3c1C2.Cl [Compound 9ea, 1,2,3,7,8-Pentamethoxy-11H-indeno[1,2-c]isoquinoline Hydrochloride]
MGM (mean GI50 across cell lines) [1]: 13.2 µM | Top 1 Cleavage (topoisomerase I; Table 2): ++ (++, similar activity as compound A) | GI50 (HCT-116; [2]): 8.81 µM | GI50 (OVCAR-3; [8]): 0.529 µM | GI50 (UACC-62; [6]): 3.84 µM | GI50 (HOP-62; [7]): 16 µM

COc1cc2cnc3c(c2c(OC)c1OC)Cc1ccc2c(c1-3)OCO2.Cl [Compound 9eb, 1,2,3-Trimethoxy-7,8-methylenedioxy-11H-indeno[1,2-c]isoquinoline Hydrochloride]
MGM (mean GI50 across cell lines) [1]: 26.3 µM | Top 1 Cleavage (topoisomerase I; Table 2): ++ (++, similar activity as compound A) | GI50 (HCT-116; [2]): 22.1 µM | GI50 (DU-145; [3]): 26.9 µM | GI50 (MDA-MB-435; [5]): > 100 µM | GI50 (UACC-62; [6]): 22.4 µM

COc1cc2c(c(OC)c1OC)-c1ncc3cc(OC)c(OC)c(OC)c3c1C2.Cl [Compound 9ec, 1,2,3,7,8,9-Hexamethoxy-11H-indeno[1,2-c]isoquinoline Hydrochloride]
IC50 ([1]; Hydrochloride): 26.3 µM | Top 1 Cleavage (topoisomerase I; Table 2, Hydrochloride): ++ (++, similar activity as compound A) | GI50 (HCT-116; human): 27.8 µM | GI50 (OVCAR-3; human): 21.5 µM | GI50 (DU-145; human): 29.6 µM | GI50 (SN12C; human): 20.3 µM | GI50 (MDA-MB-435; human): 23 µM | GI50 (UACC-62; human): 21.1 µM | GI50 (HOP-62; human): 28.5 µM
